Data published in ChEMBL document CHEMBL3727374, “Compounds, pharmaceutical compositions, and methods of treating or preventing neurodegenerative diseases or disorders” (2012).
Calls of active or inactive are those of the source. The rule behind the calls is not given here.

How the values were obtained:
Huntingtin = Huntingtin (Homo sapiens, UniProt P42858); experiment: Inhibition of GFP-fused Huntingtin protein Q103/Q25 mutant (unknown origin) […] assessed as protection against huntingtin protein aggregation incubated for 48 hrs by multiplexed assay based HTT f3(agr) method; format: cell-based; details: pc-12
Huntingtin, sequence (P42858 whole entry, looked up, stated change not applied, the tested form may be a part): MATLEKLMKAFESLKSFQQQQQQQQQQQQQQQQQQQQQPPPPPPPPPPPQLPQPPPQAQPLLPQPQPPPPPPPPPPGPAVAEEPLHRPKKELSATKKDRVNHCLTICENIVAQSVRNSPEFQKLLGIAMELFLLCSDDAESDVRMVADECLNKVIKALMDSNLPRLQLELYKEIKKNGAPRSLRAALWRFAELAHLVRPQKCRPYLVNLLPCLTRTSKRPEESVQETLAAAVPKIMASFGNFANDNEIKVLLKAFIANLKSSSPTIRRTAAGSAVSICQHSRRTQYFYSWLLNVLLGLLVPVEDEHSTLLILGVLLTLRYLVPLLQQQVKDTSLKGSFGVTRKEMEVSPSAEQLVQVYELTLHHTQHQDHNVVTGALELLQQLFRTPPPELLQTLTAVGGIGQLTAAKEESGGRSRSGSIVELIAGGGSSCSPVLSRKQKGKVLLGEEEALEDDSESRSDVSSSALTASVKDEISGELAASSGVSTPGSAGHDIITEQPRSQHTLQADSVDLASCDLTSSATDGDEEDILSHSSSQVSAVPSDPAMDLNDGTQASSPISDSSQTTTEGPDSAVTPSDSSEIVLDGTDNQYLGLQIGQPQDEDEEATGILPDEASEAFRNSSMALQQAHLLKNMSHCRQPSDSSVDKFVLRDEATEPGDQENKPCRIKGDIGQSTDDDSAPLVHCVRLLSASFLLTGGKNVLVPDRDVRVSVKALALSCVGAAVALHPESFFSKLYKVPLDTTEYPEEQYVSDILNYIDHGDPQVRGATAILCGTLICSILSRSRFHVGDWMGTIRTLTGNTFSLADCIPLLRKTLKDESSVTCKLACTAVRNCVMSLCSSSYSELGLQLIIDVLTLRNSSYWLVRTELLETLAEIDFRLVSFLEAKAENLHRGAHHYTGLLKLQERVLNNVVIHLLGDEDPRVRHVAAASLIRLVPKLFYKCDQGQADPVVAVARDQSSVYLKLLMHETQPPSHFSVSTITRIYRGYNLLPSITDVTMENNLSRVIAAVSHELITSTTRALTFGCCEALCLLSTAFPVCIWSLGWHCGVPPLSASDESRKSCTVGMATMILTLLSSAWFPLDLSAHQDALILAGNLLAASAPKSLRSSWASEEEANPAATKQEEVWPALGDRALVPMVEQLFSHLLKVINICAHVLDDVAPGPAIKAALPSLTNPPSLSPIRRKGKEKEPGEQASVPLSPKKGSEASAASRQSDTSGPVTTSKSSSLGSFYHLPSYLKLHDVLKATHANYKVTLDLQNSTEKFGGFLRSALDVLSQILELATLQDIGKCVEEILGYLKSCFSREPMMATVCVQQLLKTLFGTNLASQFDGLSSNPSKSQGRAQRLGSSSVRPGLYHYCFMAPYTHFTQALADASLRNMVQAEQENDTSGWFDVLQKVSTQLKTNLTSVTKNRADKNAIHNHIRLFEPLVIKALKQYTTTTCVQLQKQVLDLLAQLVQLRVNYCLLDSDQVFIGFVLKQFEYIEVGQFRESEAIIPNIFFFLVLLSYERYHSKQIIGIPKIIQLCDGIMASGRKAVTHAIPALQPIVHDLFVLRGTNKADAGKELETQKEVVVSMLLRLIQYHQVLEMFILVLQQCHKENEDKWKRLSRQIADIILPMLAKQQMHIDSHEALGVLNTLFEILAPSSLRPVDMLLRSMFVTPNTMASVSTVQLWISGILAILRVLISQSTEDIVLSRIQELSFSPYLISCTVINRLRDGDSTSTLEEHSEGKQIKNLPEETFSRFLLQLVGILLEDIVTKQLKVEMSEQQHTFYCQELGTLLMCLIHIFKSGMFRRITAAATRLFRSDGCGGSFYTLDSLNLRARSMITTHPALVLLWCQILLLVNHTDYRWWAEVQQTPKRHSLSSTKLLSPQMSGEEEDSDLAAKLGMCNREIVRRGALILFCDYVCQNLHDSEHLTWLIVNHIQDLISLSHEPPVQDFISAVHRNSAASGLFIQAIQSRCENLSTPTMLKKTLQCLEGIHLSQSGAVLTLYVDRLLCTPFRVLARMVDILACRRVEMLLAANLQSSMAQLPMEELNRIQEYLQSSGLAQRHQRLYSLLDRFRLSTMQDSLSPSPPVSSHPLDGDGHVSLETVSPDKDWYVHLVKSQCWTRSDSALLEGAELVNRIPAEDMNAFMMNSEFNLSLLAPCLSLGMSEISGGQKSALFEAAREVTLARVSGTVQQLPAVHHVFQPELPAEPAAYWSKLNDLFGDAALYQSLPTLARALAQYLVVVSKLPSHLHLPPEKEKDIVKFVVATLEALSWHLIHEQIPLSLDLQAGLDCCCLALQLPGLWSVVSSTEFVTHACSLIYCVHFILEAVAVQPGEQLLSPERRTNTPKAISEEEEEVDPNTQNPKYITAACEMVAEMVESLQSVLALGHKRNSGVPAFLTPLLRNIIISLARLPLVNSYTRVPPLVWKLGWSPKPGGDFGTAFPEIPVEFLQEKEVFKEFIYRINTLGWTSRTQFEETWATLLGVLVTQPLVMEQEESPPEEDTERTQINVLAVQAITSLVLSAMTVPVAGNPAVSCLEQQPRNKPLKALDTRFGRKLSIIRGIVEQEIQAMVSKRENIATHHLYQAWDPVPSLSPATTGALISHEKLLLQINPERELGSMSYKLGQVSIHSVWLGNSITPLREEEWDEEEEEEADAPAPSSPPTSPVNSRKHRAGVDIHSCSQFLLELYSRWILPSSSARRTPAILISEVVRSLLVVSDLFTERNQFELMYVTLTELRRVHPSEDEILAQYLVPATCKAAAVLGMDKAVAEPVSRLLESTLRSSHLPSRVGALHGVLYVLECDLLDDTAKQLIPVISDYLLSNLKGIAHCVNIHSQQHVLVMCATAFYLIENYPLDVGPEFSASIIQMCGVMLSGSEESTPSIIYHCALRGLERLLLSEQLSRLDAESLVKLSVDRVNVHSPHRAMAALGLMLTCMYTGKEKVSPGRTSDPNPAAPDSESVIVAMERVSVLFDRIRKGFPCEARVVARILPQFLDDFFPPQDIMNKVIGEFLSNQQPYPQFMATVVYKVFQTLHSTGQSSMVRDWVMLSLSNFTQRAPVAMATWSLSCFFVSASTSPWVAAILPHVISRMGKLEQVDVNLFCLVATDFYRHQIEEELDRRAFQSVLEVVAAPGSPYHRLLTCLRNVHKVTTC

[1] = molecular target: T1, Phosphatidylinositol 5-phosphate 4-kinase type-2 gamma (Homo sapiens, UniProt Q8TBX8); experiment: Inhibition of PIP5K2C (unknown origin)
T1 sequence (Q8TBX8 whole entry): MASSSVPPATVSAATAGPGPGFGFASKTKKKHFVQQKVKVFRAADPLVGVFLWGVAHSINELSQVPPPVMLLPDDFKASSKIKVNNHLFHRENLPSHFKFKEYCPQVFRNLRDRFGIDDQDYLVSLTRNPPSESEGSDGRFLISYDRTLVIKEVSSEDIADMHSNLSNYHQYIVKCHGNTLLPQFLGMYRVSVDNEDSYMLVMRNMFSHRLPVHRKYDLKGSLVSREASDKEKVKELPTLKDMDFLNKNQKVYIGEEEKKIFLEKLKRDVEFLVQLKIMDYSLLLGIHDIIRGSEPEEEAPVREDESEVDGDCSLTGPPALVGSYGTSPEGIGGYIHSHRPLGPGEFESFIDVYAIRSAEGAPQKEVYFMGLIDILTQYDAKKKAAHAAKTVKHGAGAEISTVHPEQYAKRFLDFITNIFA

STHdhQ111 [2] = experiment: Cytoprotective activity in mouse STHdhQ111 cells assessed as protection against H2O2-induced cell death at 10 nM to 1 uM by MTT assay; format: functional, cell-based
STHdhQ111 [3] = experiment: Cytoprotective activity in mouse STHdhQ111 cells assessed as protection against beta-amyloid-induced cell death at 10 nM to 1 uM by MTT assay; format: functional, cell-based
[4] = Stability in mouse liver microsomes assessed as parent compound remaining at 1 uM incubated for 60 mins in presence of NADPH; format: ADME; details: read-out: Stability
[5] = Stability in mouse liver microsomes assessed as parent compound remaining at 1 uM incubated for 60 mins in absence of NADPH; format: ADME; details: read-out: Stability
[6] = Stability in mouse liver microsomes assessed as parent compound remaining at 5 uM incubated for 60 mins in absence of NADPH; format: ADME; details: read-out: Stability
[7] = Stability in mouse liver microsomes assessed as parent compound remaining at 5 uM incubated for 60 mins in presence of NADPH; format: ADME; details: read-out: Stability
STHdhQ111 [8] = experiment: Cytoprotective activity in mouse STHdhQ111 cells against serum free medium-induced apoptotic cell death assessed as inhibition of caspase-9 activation incubated for 16 hrs; format: functional, cell-based
STHdhQ111 [9] = experiment: Cytoprotective activity in mouse STHdhQ111 cells against serum free medium-induced apoptotic cell death assessed as inhibition of caspase-3 activation incubated for 16 hrs; format: functional, cell-based

| Compound | AC50 (Huntingtin) | Kd [1] | also measured |
| --- | --- | --- | --- |
| Cn1nnnc1Sc1ncnc2scc(-c3cccc(F)c3)c12 | 14.1 µM | 6.31 µM |  |
| Cn1nnnc1Sc1ncnc2scc(-c3ccc(S(C)(=O)=O)cc3)c12 | 15.8 µM | 7.94 µM |  |
| Cn1nnnc1Sc1ncnc2scc(-c3ccc4c(c3)OCO4)c12 | 20 µM | 12.6 µM |  |
| Cn1nnnc1Sc1ncnc2scc(-c3cc4ccccc4o3)c12 | 7.94 µM | 2.82 µM |  |
| Cn1nnnc1Sc1ncnc2scc(-c3cccc(N)c3)c12 | 31.6 µM | 3.98 µM |  |
| CC(=O)c1cccc(-c2csc3ncnc(Sc4nnnn4C)c23)c1 | 28.2 µM |  | Activity (STHdhQ111 [2]): Active; Activity (STHdhQ111 [3]): Active |
| Cn1nnnc1Sc1ncnc2scc(Br)c12 | 5.01 µM | 1.12 µM |  |
| CC(=O)c1ccc(-c2csc3ncnc(Sc4nnnn4C)c23)cc1 | 39.8 µM |  | remaining at 1 h, 1 µM [4]: 2%; remaining at 1 h, 1 µM [5]: 91% |
| Cn1nnnc1Sc1ncnc2scc(-c3ccccc3)c12 | 39.8 µM | 3.55 µM |  |
| Cn1nnnc1Sc1ncnc2scc(-c3cccc(S(C)(=O)=O)c3)c12 | 39.8 µM | 0.63 µM | remaining at 1 h, 5 µM [6]: 89%; remaining at 1 h, 5 µM [7]: 70% |
| Cn1nnnc1Sc1ncnc2scc(-c3cccs3)c12 | 35.5 µM | 2.82 µM | remaining at 1 h, 1 µM [4]: 0%; remaining at 1 h, 1 µM [5]: 88% |
| Cn1nnnc1Sc1ncnc2scc(-c3cccc(C(F)(F)F)c3)c12 | 35.5 µM | 6.3 µM |  |
| Cn1nnnc1Sc1ncnc2scc(-c3ccc4c(=O)ccoc4c3)c12 | 35.5 µM | 1.99 µM |  |
| Cn1nnnc1Sc1ncnc2scc(-c3ccc(Br)cc3)c12 | 35.5 µM | 39.8 µM |  |
| Cn1nnnc1Sc1ncnc2scc(-c3ccc(F)cc3)c12 | 20 µM | 12.6 µM | Activity (STHdhQ111 [8]): Active; Activity (STHdhQ111 [9]): Active |
| CS(=O)(=O)c1cccc(-c2csc3ncnc(NCCN)c23)c1 |  | > 100 µM |  |
| COc1ccc(-c2csc3ncnc(Sc4nnnn4C)c23)cc1 | 39.8 µM | 11.2 µM |  |
| Cn1nnnc1Sc1ncnc2scc(-c3ccc[nH]3)c12 | 31.6 µM | 5.62 µM |  |
| Cn1nnnc1Sc1ncnc2scc(-c3ccsc3)c12 | 35.5 µM | 7.94 µM |  |
| Cn1nnnc1Sc1ncnc2scc(-c3cccc4ccccc34)c12 | 35.5 µM | > 100 µM |  |
| Cn1nnnc1Sc1ncnc2scc(-c3ccc(C(F)(F)F)cc3)c12 | 35.5 µM | > 100 µM |  |
| Cn1nnnc1Sc1ncnc2scc(-c3ccc(-c4ccccc4)cc3)c12 | 28.2 µM | > 100 µM |  |
| COc1cccc(-c2csc3ncnc(Sc4nnnn4C)c23)c1 | 28.2 µM | 3.98 µM |  |

| Compound | AC50 (Huntingtin) | Kd [1] | also measured |
| --- | --- | --- | --- |
| Cn1nnnc1Sc1ncnc2scc(-c3cccc(Cl)c3)c12 | 22.4 µM | 11.2 µM |  |
| Cn1nnnc1Sc1ncnc2scc(-c3ccccc3F)c12 | 35.5 µM | 6.31 µM |  |
| Cn1nnnc1Sc1ncnc2scc(-c3cccc(Br)c3)c12 | 35.5 µM | 2.82 µM |  |
| Cn1nnnc1Sc1ncnc2scc(-c3ccccc3C(F)(F)F)c12 | 28.2 µM | 63.1 µM |  |
| Cn1nnnc1Sc1ncnc2scc(I)c12 | 35.5 µM | 0.89 µM |  |
| Cc1cccc(-c2csc3ncnc(Sc4nnnn4C)c23)c1 | 35.5 µM | 11.2 µM |  |
| COc1ccccc1-c1csc2ncnc(Sc3nnnn3C)c12 | 31.6 µM | 79.4 µM |  |
| CC(=O)c1ccccc1-c1csc2ncnc(Sc3nnnn3C)c12 |  | 44.7 µM |  |
| Cn1nnnc1Sc1ncnc2scc(-c3cccc([N+](=O)[O-])c3)c12 | 35.5 µM | 1.58 µM |  |
| Cn1nnnc1Sc1ncnc2scc(-c3ccc(Cl)cc3)c12 | 39.8 µM | 28.2 µM |  |
| Cn1nnnc1Sc1ncnc2scc(-c3ccc(C(=O)OC(C)(C)C)cc3)c12 | 35.5 µM | > 100 µM |  |
| Cc1ccc(-c2csc3ncnc(Sc4nnnn4C)c23)cc1 | 39.8 µM | 14.1 µM |  |
| Cn1nnnc1Sc1ncnc2scc(-c3ccccc3Cl)c12 |  | 14.1 µM |  |
| Cn1nnnc1Sc1ncnc2scc(-c3ccc(C#N)cc3)c12 | 35.5 µM | 12.6 µM |  |
| Cn1nnnc1Sc1ncnc2scc(-c3ccccc3C#N)c12 |  | 6.3 µM |  |
| Cc1ccccc1-c1csc2ncnc(Sc3nnnn3C)c12 |  | 44.7 µM |  |
| Cn1nnnc1Sc1ncnc2scc(-c3ccccc3[N+](=O)[O-])c12 | 15.8 µM | 11.2 µM |  |
| Cn1nnnc1Sc1ncnc2scc(-c3ccc([N+](=O)[O-])cc3)c12 | 35.5 µM | 6.31 µM |  |
| Cn1nnnc1Sc1ncnc2scc(-c3ccc4ccccc4c3)c12 | 15.8 µM | 63.1 µM |  |
| Cn1nnnc1Sc1ncnc2scc(-c3ccc(N)cc3)c12 |  | 5.62 µM |  |
| Cn1nnnc1Sc1ncnc2scc(-c3cccc4c3sc3ccccc34)c12 | 35.5 µM | > 100 µM |  |
| Cn1nnnc1Sc1ncnc2scc(-c3cccc(C#N)c3)c12 | 35.5 µM | 2.51 µM |  |
